Data taken from patent US4210638A, “Antiviral composition and method of treating virus diseases” (PCR, Inc., priority 1978, dated 1980).
“And” between values parts separate entries of the source, which are not always exact repeats. Identical values can stand only once. Like-named read-outs stand apart in the source and are kept apart here.

Assays:
[1] = test system: HSV-1; assay: Antiviral activity vs HSV-1 in HEp-2 cells (plaque assay in BHK cells); assay type: cell-based; conditions: for Log10 S.F. vs HSV-1: + H4 U (from FIG. 3)
Description: (§1) The culture medium containing the nucleoside analogs at varying concentrations are added to the infected cultures. In the case of HEp-2 cells which contain high deaminase levels, H4 U is incorporated into the medium. At 48 hours, virus is harvested from the cultures by freezing and thawing. The virus produced from each culture is titred by plaque assay in BHK cells. By using this protocol the antiviral effectiveness of F3 methyl dC can be compared directly with the effectiveness of other antiviral agents. Furthermore, by including H4 U in the medium, the effectiveness of F3 methyl dC can be determined without deamination at the nucleoside level.

[2] = test system: cytidine deaminase; assay: Incubation with crude cytidine deaminase extract of HEP-2 cells (deamination); assay type: in vitro ADME, human; conditions: crude HEP-2 cytidine deaminase extract; Whatman 3MM chromatography
[3] = Incubation with acetate buffer (pH 4.5); assay type: physicochemical; conditions: 9 hours
Description: (§2) The results of incubation with HNO2 (pH 4.5) at room temperature were identical to those obtained above.

[4] = target: T1, HSV-2 induced pyrimidine deoxyribonucleoside kinase (Human herpesvirus 2 strain HG52, UniProt P89446); assay: Phosphorylation by HSV-2 induced pyrimidine deoxyribonucleoside kinase; assay type: biochemical
T1 construct: preparation not described in the excerpts
From the text: The following spots were eluted into H2 O and scanned from 225 to 350 nm: (a) standard, (b) F3 methyl dC standard, […] spot after cytidine deaminase treatment of F3 dT and […] spot after cytidine deaminase treatment of F3 methyl dC. The u.v. absorption profile of F3 dT derived from deamination of F3 methyl dC is identical to that obtained from authentic F3 dT.
Solutions a, c, and d, above, were adjusted to the same O. D. and used as substrates for HSV-2 induced pyrimidine deoxyribonucleoside kinase. Results:
Stock solutions of F3 dT and F3 methyl dC were made up and adjusted to the same concentration as the F3 dT and F3 methyl dC purified chromatographically (solutions a and b, respectively). Usually, F3 methyl dC is phosphorylated 1/6 of the extent that F3 dT is phosphorylated. […] This experiment was performed twice. Results:
Values for chromatographically purified samples are probably lower due to impurities arising from non-acid washed paper.

[5] = Solubility; assay type: physicochemical
[6] = Survival / toxicity in the mouse; conditions: in vivo
Description: That is, 3 mg/kg body weight to 75 mg/kg body weight; for example, about 10 mg/kg body weight per day for 7 days or 700 mg for a 70 kg man per day for 7 days. […] 100 percent survival was obtained with a dose of 50 mg.

[7] = Metabolic stability; conditions: versus prior antiviral agents
[8] = Incubation with HNO2 (pH 4.5) at room temperature; assay type: physicochemical; conditions: 9 hours
Description: as §2

[9] = test system: HSV-2; assay: Antiviral activity vs HSV-2 in HEp-2 cells (plaque assay in BHK cells); assay type: cell-based; conditions: for Average Log10 S.F.: +H4 U
Description: as §1

[10] = test system: HEp-2 cells; assay: Cytotoxicity vs HEp-2 cells (colony formation, % survival); conditions: for % Survival: 2880 min
[11] = as above; conditions: human, hep-2 cells; for viability at 48 h, 60 µM: % S of HEp-2 cells, 0.06 mM; for viability at 48 h, 3 µM: 0.003 mM; for viability at 48 h, 30 µM: 0.03 mM; for viability at 48 h, 300 µM: 0.3 mM
[12] = test system: Herpes-varicella-zoster virus (VZV); assay: Antiviral activity against cells infected with Herpes-varicella-zoster virus; assay type: cell-based
[13] = % Survival, +H4 U 500 μg/ml (experiment 3 and 4)

T1 sequence (P89446 whole entry): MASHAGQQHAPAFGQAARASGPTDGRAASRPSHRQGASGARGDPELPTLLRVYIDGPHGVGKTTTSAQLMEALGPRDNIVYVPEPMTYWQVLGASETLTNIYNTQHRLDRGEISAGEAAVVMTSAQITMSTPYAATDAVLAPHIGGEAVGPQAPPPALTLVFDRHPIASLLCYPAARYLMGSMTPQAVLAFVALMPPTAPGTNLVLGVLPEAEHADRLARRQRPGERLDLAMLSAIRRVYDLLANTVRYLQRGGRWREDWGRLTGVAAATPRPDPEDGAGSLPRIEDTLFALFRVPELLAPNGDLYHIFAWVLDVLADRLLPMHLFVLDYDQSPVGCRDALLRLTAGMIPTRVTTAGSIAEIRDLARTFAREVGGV

SMILES: Nc1nc(=O)n([C@H]2C[C@H](O)[C@@H](CO)O2)cc1C(F)(F)F [F3 methyl dC, 5-trifluoromethyl-2'-deoxycytidine]
- Log10 S.F. vs HSV-1 ([1]; 0.003 mM): -4.2
- Log10 S.F. vs HSV-1 ([1]; 0.03 mM): < -4.6
- antiviral activity vs HSV-1 compared with F3 dT±H4 U ([1]; ±H4 U (FIG. 3)): more potent antiviral activity than F3 dT±H4 U
- chromatographic change on incubation with cytidine deaminase [2]: formation of an Rf =0.43 spot and disappearance of the 0.80 spot
- modification in acetate buffer [3]: did not lead to modification
- ratio of phosphorylation relative to F3 dT ([4]; chromatographically purified): Approx 1/3
- nmoles phosphorylated/4 hrs ([4]; chromatographically purified, value in parentheses (experiment performed twice)): 0.06 nmoles/4 hrs
- nmoles phosphorylated/4 hrs ([4]; chromatographically purified, value outside parentheses): 0.04 nmoles/4 hrs
- ratio of phosphorylation relative to F3 dT ([4]; standard solutions): Approx 1/4
- nmoles phosphorylated/4 hrs ([4]; standard solutions, value in parentheses (experiment performed twice)): 0.08 nmoles/4 hrs
- nmoles phosphorylated/4 hrs ([4]; standard solutions, value outside parentheses): 0.48 nmoles/4 hrs
- extent of phosphorylation relative to F3 dT ([4]; usual value): 1/6
- solubility in DMSO ([5]; DMSO): a solvent for the F3 methyl dC
- solubility in acetone ([5]; acetone): insoluble in acetone
- solubility in water ([5]; water): partially soluble in water
- survival at 168 h ([6]; 50 mg/kg/day for 7 days, coadministered with H4 U): 100%
- survival at 168 h ([6]; 250 mg/kg once per day for 7 days, H4 U coadministered one hour prior): 60%
- LD50 at 168 h ([6]; coadministered with H4 U, for 7 days): 325 mg/kg
- metabolic stability [7]: substantially increased metabolic stability
- conversion to a product that has the same Rf as F3 dT [8]: approximately 98%
- Log10 Surviving Fraction of Plaque Forming Units ([9]; 0.003 mM, +H4 U 500 μg/ml (experiment 3 and 4)): -1.9
- Average Log10 S.F. ([9]; 0.003 mM, average): -1.7
- Average Log10 S.F. ([9]; 0.03 mM, average): -3.6
- Log10 Surviving Fraction of Plaque Forming Units ([9]; 0.3 mM, +H4 U 100 μg/ml (experiment 1 and 2)): -3.7
- Average Log10 S.F. ([9]; 0.3 mM, average): -3.7
- log reduction at 3 µM ([9]; Human alphaherpesvirus 2, 48 h, 0.003 mM, -H4 U, average, read-out: Average Log10 S.F.): 0.94
- log reduction at 30 µM ([9]; Human alphaherpesvirus 2, 48 h, 0.03 mM, +2'dH4 U 500 μg/ml, read-out: Log10 S.F. HSV-2): 3.5
- log reduction at 30 µM ([9]; Human alphaherpesvirus 2, 48 h, 0.03 mM, +H4 U 500 μg/ml, read-out: Log10 S.F. HSV-2): 3.4
- log reduction at 30 µM ([9]; Human alphaherpesvirus 2, 48 h, 0.03 mM, -H4 U, average, read-out: Average Log10 S.F.): 3.2
- log reduction at 30 µM ([9]; Human alphaherpesvirus 2, 48 h, 0.03 mM, no addition, read-out: Log10 S.F. HSV-2): 3.3
- log reduction at 300 µM ([9]; Human alphaherpesvirus 2, 48 h, 0.3 mM, -H4 U, average, read-out: Average Log10 S.F.): 3.7
- log reduction at 300 µM ([9]; Human alphaherpesvirus 2, 48 h, 0.3 mM, -H4 U, read-out: Log10 Surviving Fraction of Plaque Forming Units): 3.7
- log reduction at 30 µM ([9]; Human alphaherpesvirus 2, 48 h, read-out: Log10 Surviving Fraction of Plaque Forming Units, 0.03 mM, -H4 U): 3.1
- % Survival ([10]; 0.003 mM, +H4 U 100 μg/ml (experiment 1 and 2), 3 µM): 93%
- % Survival ([10]; 0.003 mM, +H4 U 500 μg/ml (experiment 3 and 4), 3 µM): 61%
- % Survival ([10]; 0.003 mM, -H4 U, 3 µM): 3% and 0.1% and 0.6%
- % Survival ([10]; 0.03 mM, +H4 U 500 μg/ml (experiment 3 and 4), 30 µM): 31%
- cytotoxicity at concentrations with antiviral activity ([10]; +H4 U): only marginally cytotoxic
- increased survival with H4 dU than with H4 U ([10]; F3 methyl dC with H4 dU versus with H4 U): ~5 fold
- therapeutic index ([10]; with H4 U, HSV-2 vs HEp-2 cytotoxicity): high therapeutic index
- cytotoxicity at concentrations with antiviral activity ([10]; without H4 U): extremely cytotoxic
- cytotoxicity at effective antiviral concentrations ([10]; ±H4 U (summary of Table IV)): marginal to only moderate cytotoxicity
- viability at 48 h, 60 µM ([11]; +2'dH4 U 500 μg/ml): 50 ± 5%
- viability at 48 h, 60 µM ([11]; +H4 U 500 μg/ml): 9 ± 3%
- viability at 48 h, 60 µM ([11]; no addition): < 0.006%
- viability at 48 h, 3 µM ([11]; % Survival, +H4 U 100 μg/ml (experiment 1 and 2)): 100%
- viability at 48 h, 3 µM [11, 13]: 53%
- viability at 48 h, 30 µM [11, 13]: 25%
- viability at 48 h, 300 µM [11, 13]: 0.001%
- viability at 48 h, 3 µM ([11]; Average % S, +H4 U, average): 77%
- viability at 48 h, 3 µM ([11]; Average % S, -H4 U, average): 0.95%
- viability at 48 h, 30 µM ([11]; Average % S, +H4 U, average): 32%
- viability at 48 h, 30 µM ([11]; Average % S, -H4 U, average): < 0.01%
- viability at 48 h, 300 µM ([11]; Average % S, +H4 U, average): < 0.01%
- viability at 48 h, 300 µM ([11]; Average % S, -H4 U, average): < 0.01%
- antiviral activity against cells infected with VZV [12]: selective antiviral activity
